Experimental data reported in ChEMBL document CHEMBL2073893, “BBB transport and P-glycoprotein functionality using MDR1A (-/-) and wild-type mice. Total brain versus microdialysis concentration profiles of rhodamine-123” (Pharm Res, 1998).

Molecular target: ATP-dependent translocase ABCB1 (Mus musculus, UniProt P21447)
Assay: TP_TRANSPORTER: increase in brain concentration in mdr1a(-/-) mouse
Format: functional, organism-based
Details: in vivo

ATP-dependent translocase ABCB1, sequence (P21447 whole entry): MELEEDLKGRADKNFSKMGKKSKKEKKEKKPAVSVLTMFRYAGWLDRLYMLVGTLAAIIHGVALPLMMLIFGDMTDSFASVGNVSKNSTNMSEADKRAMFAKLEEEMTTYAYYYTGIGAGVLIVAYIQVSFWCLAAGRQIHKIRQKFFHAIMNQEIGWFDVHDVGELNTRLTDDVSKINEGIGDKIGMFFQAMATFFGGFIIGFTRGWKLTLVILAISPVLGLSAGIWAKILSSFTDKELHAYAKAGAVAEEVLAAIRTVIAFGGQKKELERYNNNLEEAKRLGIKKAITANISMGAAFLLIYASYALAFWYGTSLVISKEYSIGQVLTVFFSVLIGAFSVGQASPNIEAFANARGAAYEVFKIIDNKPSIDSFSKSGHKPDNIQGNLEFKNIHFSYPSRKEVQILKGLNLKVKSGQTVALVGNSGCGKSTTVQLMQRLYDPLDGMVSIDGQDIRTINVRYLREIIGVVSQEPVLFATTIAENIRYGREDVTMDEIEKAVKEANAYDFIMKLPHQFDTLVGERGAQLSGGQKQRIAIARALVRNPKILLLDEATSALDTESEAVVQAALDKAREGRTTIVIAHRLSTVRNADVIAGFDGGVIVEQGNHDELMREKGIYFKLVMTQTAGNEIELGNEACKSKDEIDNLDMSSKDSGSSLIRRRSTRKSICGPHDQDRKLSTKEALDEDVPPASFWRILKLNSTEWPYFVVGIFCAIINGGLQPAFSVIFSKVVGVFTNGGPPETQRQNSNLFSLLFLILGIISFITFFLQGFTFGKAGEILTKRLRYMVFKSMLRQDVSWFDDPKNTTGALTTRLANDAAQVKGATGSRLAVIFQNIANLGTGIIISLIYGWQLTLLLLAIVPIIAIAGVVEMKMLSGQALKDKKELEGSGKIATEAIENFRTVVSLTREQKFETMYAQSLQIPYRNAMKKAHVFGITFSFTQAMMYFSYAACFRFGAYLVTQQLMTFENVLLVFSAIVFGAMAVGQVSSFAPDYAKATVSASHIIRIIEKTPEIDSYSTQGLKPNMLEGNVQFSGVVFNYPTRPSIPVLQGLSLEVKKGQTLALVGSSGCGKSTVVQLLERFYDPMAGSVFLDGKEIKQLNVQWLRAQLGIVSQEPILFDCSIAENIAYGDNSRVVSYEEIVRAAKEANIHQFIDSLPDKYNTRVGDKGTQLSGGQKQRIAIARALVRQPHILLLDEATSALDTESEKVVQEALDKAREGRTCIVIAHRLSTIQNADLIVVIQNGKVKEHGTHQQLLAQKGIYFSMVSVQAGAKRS

Activity: substrate [+]
SMILES: COC(=O)c1ccccc1-c1c2ccc(=N)cc-2oc2cc(N)ccc12.Cl [RHODAMINE123]
